Source: patent publication US20190375787A1, “PEPTIDOMIMETICS AND THEIR USE IN THERAPY” (INSTYTUT […]. Z O.O., priority 2016, published 2019)
Square brackets hold non-standard residues; d marks the D form. Peptide text beside a SMILES is read from it. * marks the point of attachment. X1 = C(=Cc1ccccc1)CN1CCN(*)CC1

Columns and labels:
Format in all cases: cell-based
[1] = tested on: SW480 (intestinal cancer) cells; assay: Inhibition of cell migration (transwell insert), SW480; conditions: SW480, IC50 concentration
Method: (§1) Inhibition of cell migration was evaluated using 24-well plates with PET (polyethylene terephthalate) membrane transwell insert. The experiment was performed using IC50 concentrations of the tested compounds, and migration of the cells, that means, the number of the cells passing through the membrane to the bottom side of the membrane, was observed. The cells which passed the membrane, were stained with crystal violet and counted.

[2] = tested on: HT29 (intestinal cancer) cells; assay: Inhibition of cell migration (transwell insert), HT29; conditions: HT29, IC50 concentration, concentrations below 400 μM
Method: as §1

[3] = tested on: Colo205 (intestinal cancer) cells; assay: Inhibition of cell migration (transwell insert), Colo205; conditions: Colo205, IC50 concentration, concentrations below 400 μM
Method: as §1

[4] = tested on: SW620 (intestinal cancer); assay: Cell growth, colorimetric MTT or XTT, SW620
Method: (§2) Influence of the compounds on the cell growth was evaluated by colorimetric method, using MTT or XTT reagent, values of IC50 were determined. The tests were based on reduction of the salt by mitochondrial dehydrogenase from metabolically active cells. The colored product of the reaction was determined colorimetrically, and in result the number of living cells was assigned.

[5] = tested on: SW620 (intestinal cancer) cells; assay: Inhibition of cell migration (transwell insert), SW620; conditions: SW620, IC50 concentration
Method: as §1

[6] = tested on: human pancreatic cancer cell line CFPAC-1; assay: MTS cell viability test on CFPAC-1 cells; conditions: 24 h incubation; for activity (cell viability) compared with gem and 5FU: CFPAC-1, concentrations 0.01-0.1 mM; for activity relative to the reference drugs (gem, 5FU): CFPAC-1, higher concentrations (above 0.1 mM)
Text: Phenylalanyl-trans-1-cinnamylpiperazine was acylated with t-Boc-Tyr-D-Ala using TBTU/DIPEA methodology. The reaction product was precipitated with 10% NaHCO3 and separated from the reaction mixture by filtration. The solid was washed three times with water, until neutral pH of the filtrate was reached. The t-butyloxycarbonyl group was removed using TFA:DCM (1:1). The crude product was purified by preparative HPLC in a gradient of water/methanol with addition of 0.1% trifluoroacetic acid. The counterion was changed to Cl^− using the Dowex ion-exchange resin. The purified product, tyrosyl-D-alanyl-phenylalanyl-cinnamylpiperazine hydrochloride (further called TyrDAlaPheCyn) was tested on human pancreatic cancer cell line CFPAC-1, in comparison to commercial drugs, gemcitabine (gem) and 5-fluorouracil (5FU). The cells were grown on IMDM medium supplemented with 10% (v/v h.i. FBS, 2 mM L-glutamine and 1% (v/v) penicillin-streptomycin, in 37° C., in humidified atmosphere, with 5% CO2. The cells were seeded in 96 wells plate (3×10^3 cells per well) and incubated for 24 h (37° C., 5% CO2) in the culture medium. Next, TyrDAlaPheCyn, gem and 5FU in 5% DMSO solutions were added, to give in wells concentrations 0 (5% DMSO); 0.01; 0.05; 0.1; 0.5; and 1 mM. The plates were incubated for 24 h (37° C., 5% CO2). Cell viability was determined using colorimetric test MTS (3-(4,5-dimethylthiazol-2-yl)-5-(3-carboxymethoxyphenyl)-2-(4-sulfophenyl)-2H-tetrazolium). To each well, 20 μl of the reagent was added, and the plates were incubated in the same conditions for 1 h. The absorbance intensity at 490 nm was read. […] However, at higher concentrations, activity of the tested compound was even 4 times higher than for the reference drugs.
Tryptophyl-trans-1-cinnamylpiperazine was acylated with t-Boc-Tyr-D-Ala using TBTU/DIPEA methodology. The reaction product was precipitated with 10% NaHCO3 and separated from the reaction mixture by filtration. The solid was washed three times with water, until neutral pH of the filtrate was reached. The t-butyloxycarbonyl group was removed using TFA:DCM (1:1). […] The cells were grown on DMDM medium supplemented with 10% (v/v h.i. FBS, 2 mM L-glutamine and 1% (v/v) penicillin-streptomycin, in 37° C., in humidified atmosphere, with 5% CO2. The cells were seeded in 96 wells plate (3×10^3 cells per well) and incubated for 24 h (37° C., 5% CO2) in the culture medium. Next, TyrDAlaTrpCyn, gem and 5FU in 5% DMSO solutions were added, to assure in wells concentrations 0 (5% DMSO); 0.01; 0.05; 0.1; 0.5; and 1 mM. The plates were incubated for 24 h (37° C., 5% CO2). Cell viability was determined using colorimetric test MTS (3-(4,5-dimethylthiazol-2-yl)-5-(3-carboxymethoxyphenyl)-2-(4-sulfophenyl)-2H-tetrazolium). […] The absorbance intensity at 490 nm was read. […]

[7] = tested on: Colo205 (intestinal cancer); assay: Cell growth, colorimetric MTT or XTT, Colo205
Method: as §2

HT29 (intestinal cancer) = assay: Cell growth, colorimetric MTT or XTT, HT29
Method: as §2

Row | SMILES | inhibition of cell migration ([1]; concentrations below 400 μM) [%] | inhibition of cell migration [2] [%] | inhibition of cell migration [3] [%] | IC50 [4] [µM] | activity (cell viability) compared with gem and 5FU [6] | activity relative to the reference drugs (gem, 5FU) [6] [times] | other results
1 | C[C@@H](NC(=O)[C@@H](N)Cc1ccc(O)cc1)C(=O)NCC(=O)N[C@@H](Cc1ccccc1)C(=O)N1CCN(CC=Cc2ccccc2)CC1.Cl [TyrDAlaGlyPheCyn, tyrosyl-D-alanyl-glicyl-phenylalanyl-1-cinnamylpiperazine hydrochloride] | ≤ 60 | ≤ 70 | ≤ 60 | < 450 | – | – | inhibition of cell migration ([5]; concentrations below 450 μM): ≤ 40%
2 | C[C@@H](NC(=O)[C@@H](N)Cc1ccc(O)cc1)C(=O)NCC(=O)N[C@@H](Cc1c[nH]c2ccccc12)C(=O)N1CCN(CC=Cc2ccccc2)CC1.Cl [TyrDAlaGlyTrpCyn, tyrosyl-D-alanyl-glicyl-tryptophyl-1-cinnamylpiperazine hydrochloride] (H-Y[dA]GW-X1) | ≤ 30 | ≤ 50 | ≤ 40 | < 500 | – | – | inhibition of cell migration ([5]; concentrations below 500 μM): ≤ 30%
3 | C[C@@H](NC(=O)[C@@H](N)Cc1ccc(O)cc1)C(=O)N[C@@H](Cc1ccccc1)C(=O)N1CCN(CC=Cc2ccccc2)CC1.Cl [TyrDAlaPheCyn, tyrosyl-D-alanyl-phenylalanyl-cinnamylpiperazine hydrochloride] | – | – | – | – | similar | 4 | –
4 | C[C@@H](NC(=O)[C@@H](N)Cc1ccc(O)cc1)C(=O)N[C@@H](Cc1c[nH]c2ccccc12)C(=O)N1CCN(CC=Cc2ccccc2)CC1.Cl [TyrDAlaTrpCyn, tyrosyl-D-alanyl-tryptophyl-cinnamylpiperazine hydrochloride] | – | – | – | – | similar | 4 | –
5 | C[C@H](O)[C@@H](NC(=O)[C@@H](N)Cc1ccc(O)cc1)C(=O)NCC(=O)N[C@@H](Cc1ccccc1)C(=O)N1CCN(CC=Cc2ccccc2)CC1.Cl [TyrDThrGlyPheCyn, tyrosyl-D-threonyl-glicyl-phenylalanyl-1-cinnamylpiperazine hydrochloride] (H-Y[dT]GF-X1) | – | – | – | < 650 | – | – | inhibition of cell migration ([1]; concentrations below 500 μM): ≤ 45%
6 | C[C@H](O)[C@@H](NC(=O)[C@@H](N)Cc1ccc(O)cc1)C(=O)NCC(=O)N[C@@H](Cc1c[nH]c2ccccc12)C(=O)N1CCN(CC=Cc2ccccc2)CC1.Cl [TyrDThrGlyTrpCyn, tyrosyl-D-threonyl-glicyl-tryptophyl-1-cinnamylpiperazine hydrochloride] (H-Y[dT]GW-X1) | – | – | – | < 600 | – | – | inhibition of cell migration ([1]; concentrations below 600 μM): ≤ 40%; IC50 [7]: < 650 µM; IC50 (HT29 (intestinal cancer)): < 600 µM; inhibition of cell migration ([5]; concentrations below 600 μM): ≤ 30%
